Values quoted from earlier work, collected in patent publication US6440950B1, “Selective and non-invasive visualization or treatment of vasculature” (The Johns Hopkins University, priority 1994, dated 2002).

Experiments:
[1] = in vivo
[2] = in a number of species
[3] = used intraperitonially in a few patients

- time to removal from the blood [1]: ≤ 24 h
- water solubility: water soluble
Substance: aluminum phthalocyanine tetrasulfonate [AlPcS4]
- toxicity [2]: non-toxic
- side effects [3]: no side effects have been reported
